PMC6522510 (Nature Communications, 2019)

Key:
CMK = assay: cells; parameters: species or system AML cell lines (8); Secondary HTS, 10-point dose-response in triplicate, Cell Titer Glo viability, four-parameter fit EC50; conditions: Homo sapiens, CMK, 72 h, read-out: CMK
M07e = assay: cells; parameters: species or system AML cell lines (8); Secondary HTS, 10-point dose-response in triplicate, Cell Titer Glo viability, four-parameter fit EC50; conditions: M-07e, 72 h, read-out: M07e
ML-2 = assay: cells; parameters: species or system AML cell lines (8); Secondary HTS, 10-point dose-response in triplicate, Cell Titer Glo viability, four-parameter fit EC50; conditions: Homo sapiens, ML-2, 72 h, read-out: ML-2
CHRF288-11 = assay: cells; parameters: species or system AML cell lines (8); Secondary HTS, 10-point dose-response in triplicate, Cell Titer Glo viability, four-parameter fit EC50; conditions: 72 h, read-out: CHRF288-11
MV4-11 [1] = assay: Secondary dose-response HTS, Cell Titer Glo; type: cell-based, human; conditions: Homo sapiens; secondary high-throughput screen; MV4-11; read-out: average effective concentration, MV4-11
CMS = assay: cells; parameters: species or system AML cell lines (8); Secondary HTS, 10-point dose-response in triplicate, Cell Titer Glo viability, four-parameter fit EC50; conditions: 72 h, read-out: CMS
U937 = assay: cells; parameters: species or system AML cell lines (8); Secondary HTS, 10-point dose-response in triplicate, Cell Titer Glo viability, four-parameter fit EC50; conditions: Homo sapiens, U-937, 72 h, read-out: U937
MOLM-13 = assay: cells; parameters: species or system AML cell lines (8); Secondary HTS, 10-point dose-response in triplicate, Cell Titer Glo viability, four-parameter fit EC50; conditions: Homo sapiens, MOLM-13, 72 h, read-out: MOLM-13
MV4-11 [2] = assay: cells; parameters: species or system AML cell lines (8); Secondary HTS, 10-point dose-response in triplicate, Cell Titer Glo viability, four-parameter fit EC50; conditions: Homo sapiens, MV4-11, 72 h, read-out: MV4-11

Compound | EC50 (MV4-11 [1]) [µM] | EC50 (U937) [µM] | EC50 (MOLM-13) [µM] | EC50 (MV4-11 [2]) [µM] | EC50 (CMK) [µM] | EC50 (M07e) [µM] | EC50 (ML-2) [µM] | EC50 (CHRF288-11) [µM] | EC50 (CMS) [µM]
O=c1[nH]cc(F)c(=O)[nH]1 [Compound 5-FLUOROURACIL] | > 10 | > 10 | > 10 | – | > 10 | > 10 | > 10 | > 10 | > 10
COc1ccc([C@@]23Oc4cc(OC)cc(OC)c4[C@]2(O)[C@H](O)[C@H](C(=O)N(C)C)[C@H]3c2ccccc2)cc1 [SJ000834151, ROCAGLAMIDE A] | – | 0.053 | 0.018 | > 10 | 0.021 | 0.031 | 0.044 | 0.014 | 0.017
Nc1nc(NC2CC2)cc(-c2cccc(Cl)c2Cl)n1 [SJ000834160, TH588] | – | 3 | > 10 | > 10 | 4.8 | > 10 | 10 | > 10 | > 10
CC1(C)CCC(C)(C)c2cc(NC(=O)c3ccc(C(=O)O)cc3)ccc21 [TAMIBAROTENE] | – | > 10 | > 10 | > 10 | > 10 | > 10 | > 10 | > 10 | > 10
CCOC(=O)c1ccc(C#Cc2ccc3c(c2)C(C)(C)CCS3)nc1 [TAZAROTENE] | – | > 10 | > 10 | > 10 | > 10 | > 10 | > 10 | > 10 | > 10
Cn1nnc2c(C(N)=O)ncn2c1=O [TEMOZOLOMIDE] | – | > 10 | > 10 | > 10 | > 10 | > 10 | > 10 | > 10 | > 10
CO[C@H]1C[C@@H]2CC[C@@H](C)[C@@](O)(O2)C(=O)C(=O)N2CCCC[C@H]2C(=O)O[C@H]([C@H](C)C[C@@H]2CC[C@@H](OC(=O)C(C)(CO)CO)[C@H](OC)C2)CC(=O)[C@H](C)/C=C(\C)[C@@H](O)[C@@H](OC)C(=O)[C@H](C)C[C@H](C)/C=C/C=C/C=C/1C [TEMSIROLIMUS] | – | > 10 | > 10 | > 10 | > 10 | > 10 | > 10 | > 10 | > 10
COc1cc2nccc(Oc3ccc(NC(=O)Nc4cc(C)on4)c(Cl)c3)c2cc1OC [TIVOZANIB] | 7.8 | > 10 | > 10 | – | > 10 | > 10 | > 10 | > 10 | > 10
CC1=C(/C=C/C(C)=C/C=C/C(C)=C/C(=O)O)C(C)(C)CCC1 [TRETINOIN] | – | > 10 | > 10 | > 10 | > 10 | > 10 | > 10 | > 10 | > 10
C[C@]1(c2nc3c(C(N)=O)cccc3[nH]2)CCCN1 [VELIPARIB] | – | > 10 | > 10 | > 10 | > 10 | > 10 | > 10 | > 10 | > 10
CCCS(=O)(=O)Nc1ccc(F)c(C(=O)c2c[nH]c3ncc(-c4ccc(Cl)cc4)cc23)c1F [VEMURAFENIB] | – | > 10 | > 10 | > 10 | > 10 | > 10 | > 10 | > 10 | > 10
CS(=O)(=O)c1ccc(C(=O)Nc2ccc(Cl)c(-c3ccccn3)c2)c(Cl)c1 [VISMODEGIB] | – | > 10 | > 10 | > 10 | > 10 | > 10 | > 10 | > 10 | > 10

Further lines, with some results ahead:

EC50 (MV4-11 [1]) [µM] | EC50 (U937) [µM] | EC50 (MOLM-13) [µM] | EC50 (MV4-11 [2]) [µM] | Compound | EC50 (CMK) [µM] | EC50 (M07e) [µM] | EC50 (ML-2) [µM] | EC50 (CHRF288-11) [µM] | EC50 (CMS) [µM]
> 10 | > 10 | > 10 | – | NC(=O)[C@@H](CCC(F)(F)F)N(Cc1ccc(-c2ncon2)cc1F)S(=O)(=O)c1ccc(Cl)cc1 [BMS-708163] | > 10 | > 10 | > 10 | > 10 | > 10
– | 3 | 0.47 | > 10 | CCN1CCN(CC(=O)Nc2ccc(-c3cccc4c(=O)cc(N5CCOCC5)oc34)c3sc4ccccc4c23)CC1 [SJ000834141, KU-0060648] | 0.27 | 4 | 0.43 | 0.78 | 2.8
– | > 10 | > 10 | > 10 | Cc1ccc(NCCCc2ccccc2)c(N)c1 [SJ000834143, JSH-23] | 8.7 | > 10 | > 10 | > 10 | > 10
– | > 10 | > 10 | > 10 | O=C(Nc1cc(Cl)cc2c1[nH]c1cnccc12)c1cccnc1 [SJ000834145, PS-1145] | > 10 | > 10 | > 10 | > 10 | > 10
– | 0.19 | 0.19 | 0.19 | c1ccc2c(-c3cnn4cc(-c5ccc(N6CCNCC6)cc5)cnc34)ccnc2c1 [SJ000834146, LDN-193189] | 1.1 | 0.62 | 0.18 | 0.36 | 0.53
– | 6.7 | > 10 | > 10 | CC(C)c1cccc(C(C)C)c1N1C(=O)c2ccc(O)cc2C1=O [SJ000834149, 5HPP-33] | > 10 | > 10 | 5.7 | > 10 | 8.4
– | > 10 | > 10 | > 10 | c1ccc(-c2nn3c(c2-c2ccnc4cc(OCCN5CCOCC5)ccc24)CCC3)nc1 [SJ000834150, LY2109761] | > 10 | > 10 | > 10 | > 10 | > 10
– | 9.2 | > 10 | > 10 | CN1CCN(c2cc(C(=O)Nc3ccc4c(c3)-c3c(c(C(N)=O)nn3-c3ccc(F)cc3)CC4)c(Cl)cn2)CC1 [SJ000834153, PHA 408] | > 10 | 5.2 | > 10 | > 10 | > 10
– | > 10 | > 10 | > 10 | O=c1cc(N2CCOCC2)oc2c1ccc1ccccc12 [SJ000834163, NU 7026] | > 10 | > 10 | > 10 | > 10 | > 10
– | 0.5 | 1.3 | 1.8 | Cc1ccc(S(=O)(=O)/C=C/C#N)cc1 [SJ000834165, BAY 11-7082] | 4.5 | 3.3 | 0.68 | 1.8 | 3.6
– | > 10 | > 10 | > 10 | COc1cc(C(=O)NC2CCN(C)CC2)c(F)cc1Nc1ncc2c(n1)N(C1CCCC1)CC(F)(F)C(=O)N2C [TAK-960] | > 10 | > 10 | > 10 | > 10 | > 10
– | > 10 | > 10 | > 10 | COc1ccc(Cl)c(Nc2nc3ccccc3nc2NS(=O)(=O)c2cccc(NC(=O)C(C)(C)N)c2)c1 [XL147] | > 10 | > 10 | > 10 | > 10 | > 10
– | > 10 | > 10 | > 10 | FC(F)c1nc2ccccc2n1-c1nc(N2CCOCC2)nc(N2CCOCC2)n1 [ZSTK-474] | > 10 | > 10 | > 10 | > 10 | > 10
